The results in this text go back to patent publication US9259396B2, “Method of preparing soy isoflavone nanoparticles by precipitation with compressed antisolvent (PCA) using a supercritical fluid” (Nano and Advanced Materials Institute Limited, priority 2012, dated 2016).

Series [1] in a line: Dissolution rate study in a dissolution medium. The series is classed as physicochemical. To be noted: over a period of 20 minutes. Here is the method: FIG. 9 is dissolution profiles of raw genistein versus PCA processed genistein under different pressures of 70 bar (Run 6) and 100 bar (Run 4).
46% weight percentage of the processed genistein from Run 4 (100 bar) is dissolved in a dissolution medium while only 23% of the unprocessed genistein is dissolved over a period of 20 minutes. This 2-fold increase in dissolution rate can be credited to the reduction in particle size resulting in an increase in total surface area. However, the dissolution rate for particles which are obtained at 70 bar with smaller particles (Run 6) is slower than that of particles obtained at 100 bar (Run 4).

The nature of series [2]: Saturation concentration of genistein in acetone. The series is classed as physicochemical. To be noted: room temperature and atmospheric pressure. Here is the method: As used herein, the concentration of genistein means the concentration of the genistein dissolved in an organic solvent such as acetone at room temperature and atmospheric pressure. The saturation point of genistein concentration dissolved in acetone at room temperature and atmospheric pressure is 4 mg/mL.

In the case of `O=c1c(-c2ccc(O)cc2)coc2cc(O)cc(O)c12` [unprocessed genistein, genistein], in series [1], the “weight percentage dissolved in a dissolution medium” value was found to be 23%. Besides, the “saturation point of genistein concentration dissolved in acetone” value in series [2] is recorded as 4 mg/mL.
